SMILES strings stand for the structures. Some results are limits rather than exact numbers.

In the assay the target is T1, human beta 2 adrenoreceptor (Homo sapiens, UniProt P07550).
T1 construct: expressed in transfected cells; host or cells: frog melanophores
Put plainly: frog melanophores transfected with human beta 2 adrenoreceptor, pigment dispersal (light transmittance). In kind it is cell-based. As to conditions: melatonin-induced pigment aggregation, change in light transmittance, read-out: IC50 values at the human beta 2 adrenoreceptor (beta 2 agonist activity). The protocol:
The potencies of the aforementioned compounds were determined using frog melanophores transfected with the human beta 2 adrenoreceptor. The cells were incubated with melatonin to induce pigment aggregation. Pigment dispersal was induced by compounds acting on the human beta 2 adrenoreceptor. The beta 2 agonist activity of test compounds was assessed by their ability to induce a change in light transmittance across a melanophore monolayer (a consequence of pigment dispersal).

T1 sequence (P07550 whole entry): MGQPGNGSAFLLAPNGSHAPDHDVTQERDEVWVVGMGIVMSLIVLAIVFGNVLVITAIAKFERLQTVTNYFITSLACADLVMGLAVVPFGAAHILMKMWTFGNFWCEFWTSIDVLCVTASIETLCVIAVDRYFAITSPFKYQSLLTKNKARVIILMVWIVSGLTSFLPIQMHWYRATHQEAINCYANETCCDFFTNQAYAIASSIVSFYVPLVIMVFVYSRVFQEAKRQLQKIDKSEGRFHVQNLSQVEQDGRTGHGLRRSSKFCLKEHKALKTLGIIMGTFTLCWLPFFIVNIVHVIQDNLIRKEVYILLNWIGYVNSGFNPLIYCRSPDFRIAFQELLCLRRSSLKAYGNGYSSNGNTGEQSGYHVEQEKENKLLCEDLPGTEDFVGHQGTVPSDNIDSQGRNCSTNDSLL

The IC50 is the point on the concentration scale where inhibition reaches its midpoint. As to `CC(C)(C)NS(=O)(=O)c1cccc(CCCCOCCCCCCNC[C@H](O)c2ccc(O)c(NC=O)c2)c1` [Example 2, N-(tert-Butyl)-3-(4-{[6-({(2R)-2-[3-(formylamino)-4-hydroxyphenyl]-2-hydroxyethyl}amino)hexyl]oxy}butyl)benzenesulfonamide], the IC50 was below 1 µM. Regarding `NS(=O)(=O)c1cccc(CCCCOCCCCCCNC[C@H](O)c2ccc(O)c(NC=O)c2)c1` [Example 1, 3-(4-{[6-({(2R)-2-[3-(Formylamino)-4-hydroxyphenyl]-2-hydroxyethyl}amino)hexyl]oxy}butyl)benzenesulfonamide compound with (2E)-but-2-enedioic acid (2:1)], the IC50 is below 1 µM.

The values are drawn from patent publication US7045658B2, “Formailide derivatives as beta2-adrenoreceptor agonists” (Glaxo Group Limited, priority 2001, dated 2006).
